Values quoted from earlier work, collected in US20250312272A1, “PHARMACEUTICAL FORMULATIONS FOR ORAL ADMINISTRATION AND METHODS OF MAKING AND USING THE SAME” (Aaryen Pharma LLC, priority 2024, published 2025).
Where a name gives a salt, the structure may show the parent alone.

SMILES	solubility in water	solubility (descriptive term of Table 1) (in water)
COc1ccc2c(c1)[C@]13CCCC[C@@H]1[C@H](C2)N(C)CC3 [dextromethorphan hydrobromide]	water soluble	
COc1ccccc1OCC(O)CO (centres unmarked) [guaifenesin]		sparingly soluble
